Tested on: spontaneously hypertensive rats
Test: Antihypertensive activity: systolic blood pressure measured indirectly on conscious SHR after peroral dosing
Type: in vivo, rat
Details: for Systolic Blood Pressure, Pretreatment: SHR (male, 13 months, 2 per sample), before 35 mg/kg peroral single dose; for Systolic Blood Pressure, 4 hrs after administration / Δ Blood Pressure: SHR; for Systolic Blood Pressure, 4 hrs after administration: 4 hours after 35 mg/kg peroral single dose; for Δ Blood Pressure: 4 hours after 35 mg/kg peroral single dose versus pretreatment
Description: The antihypertensive activity of part of the amino acid derivatives prepared above, was determined.
As subject animals 2 SHR were used which had been trained enough and been confirmed to be hypertensive spontaneously hypertensive rats (male, 13 months of age, the body weight of 400 to 440 g) per sample.
As an instrument for measuring the blood pressure a Programmed Electro-Sphygmomanometer PE-300 (Narco Co., U.S.A.) was used, and the blood pressure was indirectly measured on conscious rats.
An aqueous solution or suspension of a sample (35 mg/kg) was once force-fed into the stomach by means of a peroral probe.
An antihypertensive activity of part of the amino acid derivatives prepared above was determined.
As subject animals there were used 2 SHR which had been trained enough and been confirmed to be hypertensive spontaneously hypertensive rats (male, 13 months of age, the body weight of 400~440 g) per sample.
As an instrument for measuring the blood pressure there was used Programmed Electro-Sphygmomanometer PE-300 (Narco Co., U.S.A.), and the blood pressure was indirectly measured on conscious rats.
An antihypertensive activity of the product prepared above was determined.

| Compound | Systolic Blood Pressure, Pretreatment [mm Hg] | Systolic Blood Pressure, 4 hrs after administration [mm Hg] | Δ Blood Pressure [mm Hg] |
| --- | --- | --- | --- |
| C[C@H](NP(=O)(OCc1ccccc1)OCc1ccccc1)C(=O)N1CCC[C@H]1C(=O)N1C[C@H](O)C[C@H]1C(=O)O.N=C(N)NCCC[C@H](N)C(=O)O (relative stereo) [Example 16, Dibenzylphosphoryl-L-alanyl-L-prolyl-trans-L-hydroxyproline L-arginine salt] | 181 | 162 | -19 |
| C[C@H](NP(=O)(OCc1ccccc1)OCc1ccccc1)C(=O)N1C[C@H](O)C[C@H]1C(=O)N1CCC[C@H]1C(=O)O (relative stereo) [Example 17, Dibenzylphosphoryl-L-alanyl-trans-L-hydroxyprolyl-L-proline] | 182 | 163 | -19 |
| C[C@H](NP(=O)(OCc1ccccc1)OCc1ccccc1)C(=O)N1CCC[C@H]1C(=O)O.NC(N)=NCCC[C@H](N)C(=O)O [*, Dibenzyl phosphorylL-alanyl-L-proline Larginine salt, reference compound] | 198 | 193 | -5 |
| C[C@H](NP(=O)(OCc1ccccc1)OCc1ccccc1)C(=O)N1CCC[C@H]1C(=O)N[C@@H](Cc1ccccc1)C(=O)O.N=C(N)NCCC[C@H](N)C(=O)O [Example 5, Dibenzylphosphoryl-L-alanyl-L-prolyl-L-phenylalanyl L-arginine salt] | 188 | 173 | -15 |
| C[C@H](NP(=O)(OCc1ccccc1)OCc1ccccc1)C(=O)N1CCC[C@H]1C(=O)NCC(=O)O.N=C(N)NCCC[C@H](N)C(=O)O [Example 6, Dibenzylphosphory-L-alanyl-L-prolyl-glycine L-arginine salt] | 212 | 190 | -22 |
| C[C@H](NP(=O)(OCc1ccccc1)OCc1ccccc1)C(=O)N1CCC[C@H]1C(=O)N[C@@H](CCCNC(=N)N)C(=O)O [Example 13] | 181 | 162 | -19 |
| O=C(O)[C@@H]1CCCN1C(=O)[C@@H]1CCCN1C(=O)[C@H](Cc1ccccc1)NP(=O)(Cc1ccccc1)Cc1ccccc1 [Example 20, Dibenzylphosphoryl-L-phenylalanyl-L-Prolyl-L-proline] | 184 | 169 | -15 |
| N=C(N)NCCC[C@H](NP(=O)(Cc1ccccc1)Cc1ccccc1)C(=O)N1CCC[C@H]1C(=O)N1CCC[C@H]1C(=O)O [Example 21, Dibenzylphosphoryl-L-arginyl-L-prolyl-L-proline] | 191 | 167 | -24 |
| O=C(O)CC[C@H](NP(=O)(OCc1ccccc1)OCc1ccccc1)C(=O)N1CCC[C@H]1C(=O)N1CCC[C@H]1C(=O)O [Example 22, Dibenzylphosphoryl-L-glutamyl-L-propyl-L-proline] | 206 | 196 | -10 |
| C[C@H](NP(=O)(CCc1ccccc1)OCc1ccccc1)C(=O)N1CCC[C@H]1C(=O)N1CCC[C@H]1C(=O)OCc1ccccc1 (stereo partly drawn) [Example 26, N-(O-benzyl-P-phenethylphosphonyl)-L-alanyl-L-prolyl-L-proline benzylester] | 182 | 160 | -22 |
